# Test results as given in patent US12544375B2, “Small molecule therapeutic for parkinson's disease paired with a biomarker of therapeutic activity” (The Board of Trustees of the Leland Stanford Junior …, priority 2019, dated 2026).
# System: iPSC-derived neurons
# Assay: Mitochondrial motility and clearance in axons of iPSC-derived neurons, live imaging
# Format: cell-based, human
# Conditions: 5 μM for 24 hrs
# Description: FIG. 3A-FIG. 3D. Miro1 Reducer Rescues Parkinson's Neurodegeneration. (FIG. 3A) Fibroblasts were treated, lysed, and blotted as indicated. Band intensities are normalized to those of ATP5β from the same blots and compared to “Healthy-2, no treatment”. n=4. (FIG. 3B-FIG. 3C) iPSC-derived neurons were treated as indicated and immunostained with anti-TH (FIG. 3B) or stained with PI and Dapi (FIG. 3C). Both Antimycin A and Miro1 Reducer were dissolved in ethanol. Neurons were pretreated with Miro1 Reducer 24 hrs before the application of Antimycin A for another 6 hrs. The same volume of ethanol was applied at the same time in negative controls. (FIG. 3B) The density of TH-positive neurons is calculated in each condition under 20×, from 10 fields each experiment, 3-4 experiments. […] (FIG. 3C) The percentage of PI-positive cells out of total cells (Dapi-positive) is calculated. n=20 fields each experiment, 4 experiments. […] Graphs of Mean±S.E.M show the percent of time each mitochondrion is in motion (red and blue, compared to “Wild-type-I, before treatment”), and the mitochondrial intensity normalized to that of the same axonal region at “0 min” and expressed as a fraction of the mean of “Wild-type-I, 0 min”. n=33-77 mitochondria from 5-8 axons from 5-8 separate transfections. […]
# Live Image Acquisition and Quantification. […]
structure (smiles),measurement,setting,value
O=C(Nc1ccc(Nc2cc(-n3ccnc3)ncn2)cc1)Nc1cccc(F)c1 [Miro1 Reducer],"basal motility of polarized, healthy mitochondria",,did not affect
same,delayed arrest and clearance of depolarized mitochondria,"then 100 μM Antimycin A, PD patient neurons",rescued the delayed arrest and clearance of depolarized mitochondria
